Test results from PubChem BioAssay (NCI).
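Test compounds were applied to cells in 96-well plates for 48 hours at 5 doses. GI50 marks 50% less growth. TGI is the concentration that stops growth completely.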

Experiments:
Test in all cases: NCI tumour cell line growth inhibition, 48 h
[1] = tested on: NCI-H226 lung
[2] = tested on: NCI/ADR-RES ovarian
[3] = tested on: NCI-H23 lung
[4] = tested on: A549 NSCLC
[5] = tested on: T-47D breast
[6] = tested on: SK-OV-3 ovarian
[7] = tested on: HCC-2998 colon
[8] = tested on: KM12 colon
[9] = tested on: SN12C renal
[10] = tested on: RPMI-8226 leukemia
[11] = tested on: OVCAR-5 ovarian
[12] = tested on: MALME-3M melanoma
[13] = tested on: TK-10 renal
[14] = tested on: M14 melanoma
[15] = tested on: MDA-MB-468 breast
[16] = tested on: COLO 205 colon
[17] = tested on: HCT-15 colon
[18] = tested on: UACC-62 melanoma
[19] = tested on: IGROV1 ovarian
[20] = tested on: HCT-116 colon
[21] = tested on: SR leukemia
[22] = tested on: OVCAR-3 ovarian
[23] = tested on: A498 renal
[24] = tested on: HOP-92 NSCLC
[25] = tested on: SNB-19 CNS
[26] = tested on: K-562 leukemia
[27] = tested on: SF-539 CNS
[28] = tested on: SK-MEL-2 melanoma
[29] = tested on: MCF7 breast
[30] = tested on: 786-0 renal
[31] = tested on: NCI-H460 lung
[32] = tested on: SW-620 colon
[33] = tested on: U251 CNS
[34] = tested on: UACC-257 melanoma
[35] = tested on: HS 578T breast
[36] = tested on: UO-31 renal
[37] = tested on: BT-549 breast
[38] = tested on: HL-60(TB) leukemia
[39] = tested on: SK-MEL-5 melanoma
[40] = tested on: RXF 393 renal
[41] = tested on: HOP-62 NSCLC
[42] = tested on: EKVX NSCLC
[43] = tested on: SF-268 CNS
[44] = tested on: SK-MEL-28 melanoma
[45] = tested on: CAKI-1 renal
[46] = tested on: HT29 colon
[47] = tested on: OVCAR-8 ovarian
[48] = tested on: MDA-MB-231 breast
[49] = tested on: MOLT-4 leukemia
[50] = tested on: CCRF-CEM leukemia
[51] = tested on: NCI-H522 lung
[52] = tested on: PC-3 prostate
[53] = tested on: ACHN renal
[54] = tested on: OVCAR-4 ovarian
[55] = tested on: SF-295 CNS
[56] = tested on: DU-145 prostate
[57] = tested on: SNB-75 CNS
[58] = tested on: LOX IMVI melanoma
[59] = tested on: MDA-MB-435

S=C(Nc1ccc(OCc2nc3ccc(Cl)cc3[nH]2)cc1)NC1CCCCC1
GI50 [1]: 10.8 µM | TGI [1]: 29.1 µM | GI50 [2]: 9.57 µM | TGI [2]: 25.3 µM | GI50 [3]: 8.56 µM | TGI [3]: 21.4 µM | GI50 [4]: 6.51 µM | TGI [4]: 21.6 µM | GI50 [5]: 7.75 µM | TGI [5]: 26.2 µM | GI50 [6]: 13.4 µM | TGI [6]: 27 µM | GI50 [7]: 3.12 µM | TGI [7]: 12.5 µM | GI50 [8]: 4.8 µM | TGI [8]: 17.5 µM | GI50 [9]: 8.32 µM | TGI [9]: 21.2 µM | GI50 [10]: 7.09 µM | TGI [10]: 41.8 µM | GI50 [11]: 10.8 µM | TGI [11]: 22.6 µM | GI50 [12]: 11.6 µM | TGI [12]: 23.8 µM | GI50 [13]: 12.4 µM | TGI [13]: 24.9 µM | GI50 [14]: 6.73 µM | TGI [14]: 22.5 µM | GI50 [15]: 2.97 µM | TGI [15]: 13.2 µM | GI50 [16]: 10.2 µM | TGI [16]: 27.6 µM | GI50 [17]: 5.5 µM | TGI [17]: 18.7 µM | GI50 [18]: 6.68 µM | TGI [18]: 20.4 µM | GI50 [19]: 6.95 µM | TGI [19]: 20.2 µM | GI50 [20]: 5.99 µM | TGI [20]: 21.5 µM | GI50 [21]: 2.61 µM | TGI [21]: 8.45 µM | GI50 [22]: 4.44 µM | TGI [22]: 18.8 µM | GI50 [23]: 11.2 µM | TGI [23]: 23.8 µM | GI50 [24]: 3.27 µM | TGI [24]: 14.7 µM | GI50 [25]: 10.7 µM | TGI [25]: 22.6 µM | GI50 [26]: 3.57 µM | TGI [26]: 15.1 µM | GI50 [27]: 12.1 µM | TGI [27]: 24.5 µM | GI50 [28]: 11.4 µM | TGI [28]: 24.5 µM | GI50 [29]: 2.87 µM | TGI [29]: 12.4 µM | GI50 [30]: 7.4 µM | TGI [30]: 21.4 µM | GI50 [31]: 3.96 µM | TGI [31]: 14.2 µM | GI50 [32]: 9.55 µM | TGI [32]: 24.2 µM | GI50 [33]: 11.7 µM | TGI [33]: 24.8 µM | GI50 [34]: 7.53 µM | TGI [34]: 21.6 µM | GI50 [35]: 7.33 µM | TGI [35]: 28.7 µM | GI50 [36]: 3.88 µM | TGI [36]: 16.6 µM | GI50 [37]: 15 µM | TGI [37]: 29.1 µM | GI50 [38]: 2.63 µM | TGI [38]: 13.2 µM | GI50 [39]: 5.79 µM | TGI [39]: 19.5 µM | GI50 [40]: 6.21 µM | TGI [40]: 20.5 µM | GI50 [41]: 12.3 µM | TGI [41]: 26.4 µM | GI50 [42]: 7.23 µM | TGI [42]: 20.9 µM | GI50 [43]: 8.19 µM | TGI [43]: 24.5 µM | GI50 [44]: 12.1 µM | TGI [44]: 24.5 µM | GI50 [45]: 3.47 µM | TGI [45]: 15.5 µM | GI50 [46]: 4.44 µM | TGI [46]: 16 µM | GI50 [47]: 13.1 µM | TGI [47]: 28.5 µM | GI50 [48]: 7.42 µM | TGI [48]: 20.4 µM | GI50 [49]: 4.01 µM | TGI [49]: 13.9 µM | GI50 [50]: 3.59 µM | TGI [50]: 16.6 µM | GI50 [51]: 2.9 µM | TGI [51]: 12.6 µM | GI50 [52]: 4.29 µM | TGI [52]: 18.7 µM | GI50 [53]: 4.99 µM | TGI [53]: 17.4 µM | GI50 [54]: 6.82 µM | TGI [54]: 25.1 µM | GI50 [55]: 9.72 µM | TGI [55]: 22.9 µM | GI50 [56]: 11.3 µM | TGI [56]: 27.7 µM | GI50 [57]: 1.79 µM | TGI [57]: 15.2 µM | GI50 [58]: 2.83 µM | TGI [58]: 11.5 µM | GI50 [59]: 6.97 µM | TGI [59]: 22 µM
